Our source for the GI50 and IC50 values is patent US20240116921A1, “LACTAM (HETERO)[…] DERIVATIVES AS INHIBITORS OF ERBB2” (EnLiven Therapeutics, Inc., priority 2020, published 2024).

pIC50: −log10 of the molar value. Where a name gives a salt, the structure may show the parent alone. Read-outs that look alike come from different tables or passages of the source.

Assay [1] addresses Ba/F3 ERBB2 A775_G776insYVMA (Homo sapiens, UniProt P04626, DUP772-775, cells depend on it). Description: Cell viability assay, Ba/F3 ERBB2 A775_G776insYVMA. The assay is classed as cell-based, mouse. The note with it: 72 hours, CellTiter Glo. The essentials:
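IL-3-independent Ba/F3 lines stably expressing the human ERBB2 insertion mutants were seeded at 3000 cells/well and exposed to compounds for 72 h at 37 °C, 5% CO2. Viability was read as ATP by CellTiter-Glo luminescence. Curves were fitted by sigmoidal nonlinear regression.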
For orientation: Cellular ATP, detected with luciferase, serves as a proxy for viable cell number.

Assay [2] has as its target T1, phosphorylated ERBB2 (pERBB2) (Homo sapiens, UniProt P04626).
T1 construct: endogenous in cells; host or cells: BT-474
Kind of assay: Detection of phosphorylated ERBB2 (pERBB2) by ELISA in BT-474 cells. The format is cell-based. The note with it: four hours incubation. The essentials: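 BT-474 cells (2.0×10^4/well) treated 4 h at 37 °C, 5% CO2 with compounds in four-fold dilutions from 10 µM to 0.01 nM. Lysate pERBB2 measured by ELISA with TMB read at 450 nm; % relative activity scaled between no-cell wells and 0.1% DMSO-treated cells.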

For assay [3], the target named is T2, phosphorylated EGFR (pEGFR) (Homo sapiens, UniProt P00533).
T2 construct: performed to measure phosphorylated EGFR levels using A431 cells (10% FBS); endogenous in cells; host or cells: A431
T2 sequence (P00533 25-1210): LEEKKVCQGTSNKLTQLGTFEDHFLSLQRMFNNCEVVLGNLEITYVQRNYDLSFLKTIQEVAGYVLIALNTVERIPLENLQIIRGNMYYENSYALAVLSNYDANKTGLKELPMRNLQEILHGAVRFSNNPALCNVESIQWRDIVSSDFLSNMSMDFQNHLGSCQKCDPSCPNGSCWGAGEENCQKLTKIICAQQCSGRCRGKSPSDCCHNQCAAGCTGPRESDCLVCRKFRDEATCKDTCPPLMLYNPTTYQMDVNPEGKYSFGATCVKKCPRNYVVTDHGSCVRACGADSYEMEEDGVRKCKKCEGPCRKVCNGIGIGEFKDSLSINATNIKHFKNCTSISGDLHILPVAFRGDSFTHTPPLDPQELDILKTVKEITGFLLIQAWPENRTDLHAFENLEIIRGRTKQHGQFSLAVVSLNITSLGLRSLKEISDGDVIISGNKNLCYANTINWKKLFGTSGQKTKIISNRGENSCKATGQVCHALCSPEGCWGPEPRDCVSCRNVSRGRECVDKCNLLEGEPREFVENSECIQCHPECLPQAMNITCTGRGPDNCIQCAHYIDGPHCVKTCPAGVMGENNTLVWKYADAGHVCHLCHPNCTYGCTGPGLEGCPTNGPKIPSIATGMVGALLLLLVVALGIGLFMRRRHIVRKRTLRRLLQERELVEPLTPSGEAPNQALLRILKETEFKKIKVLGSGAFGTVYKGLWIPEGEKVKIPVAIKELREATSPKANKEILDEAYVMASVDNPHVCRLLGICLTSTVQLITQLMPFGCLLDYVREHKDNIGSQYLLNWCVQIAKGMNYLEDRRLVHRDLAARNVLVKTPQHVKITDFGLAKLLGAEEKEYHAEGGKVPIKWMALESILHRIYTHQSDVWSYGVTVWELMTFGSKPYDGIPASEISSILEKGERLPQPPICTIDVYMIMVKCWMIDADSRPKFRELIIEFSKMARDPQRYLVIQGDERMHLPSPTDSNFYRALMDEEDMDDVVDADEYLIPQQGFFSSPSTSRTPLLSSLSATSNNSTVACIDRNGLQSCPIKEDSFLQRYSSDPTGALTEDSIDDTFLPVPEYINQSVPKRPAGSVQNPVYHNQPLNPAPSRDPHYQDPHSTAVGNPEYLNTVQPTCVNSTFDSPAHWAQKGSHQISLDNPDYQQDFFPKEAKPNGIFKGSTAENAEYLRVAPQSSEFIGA
Kind of assay: Detection of phosphorylated EGFR (pEGFR) in EGF-stimulated A431 cells. The note with it: A431 cells (10% FBS), 4 hours incubation, EGF 30 ng/mL 10 minutes, AlphaLISA. The format is cell-based. The essentials:
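A431 cells in 10% FBS were preincubated with compound for 4 h at 37 °C, then stimulated with EGF (30 ng/mL final) for 10 min. pEGFR in lysates was read by AlphaLISA. % inhibition was calculated against DMSO and staurosporine-treated controls, and IC50 came from a four-parameter curve fit.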
In general terms: Alpha assays give light when donor and acceptor beads are brought close together.

In a further assay the test system is BT-474. Description: Cell viability assay (CellTiter Glo), BT-474. The note with it: Homo sapiens; BT-474 cells, 72 hours, CellTiter Glo; read-out: IC50, cell viability, BT-474. The format is cell-based.
The next assay deals with A431. Description: Cell viability assay (CellTiter Glo), A431. The format is cell-based. The note with it: Homo sapiens, A-431, A431 cells, 72 hours.
Where [4] appears, read: Ba/F3 ERBB2 A775_G776insYVMA cells, Tables B2-B4, read-out: IC50, cell viability, Ba/F3 ERBB2 A775_G776insYVMA.
[5] abbreviates: Ba/F3 ERBB2 YVMA cells, cell viability, Table B5, read-out: Ba/F3 ERBB2 YVMA, IC50.

T1 sequence (P04626 23-1255): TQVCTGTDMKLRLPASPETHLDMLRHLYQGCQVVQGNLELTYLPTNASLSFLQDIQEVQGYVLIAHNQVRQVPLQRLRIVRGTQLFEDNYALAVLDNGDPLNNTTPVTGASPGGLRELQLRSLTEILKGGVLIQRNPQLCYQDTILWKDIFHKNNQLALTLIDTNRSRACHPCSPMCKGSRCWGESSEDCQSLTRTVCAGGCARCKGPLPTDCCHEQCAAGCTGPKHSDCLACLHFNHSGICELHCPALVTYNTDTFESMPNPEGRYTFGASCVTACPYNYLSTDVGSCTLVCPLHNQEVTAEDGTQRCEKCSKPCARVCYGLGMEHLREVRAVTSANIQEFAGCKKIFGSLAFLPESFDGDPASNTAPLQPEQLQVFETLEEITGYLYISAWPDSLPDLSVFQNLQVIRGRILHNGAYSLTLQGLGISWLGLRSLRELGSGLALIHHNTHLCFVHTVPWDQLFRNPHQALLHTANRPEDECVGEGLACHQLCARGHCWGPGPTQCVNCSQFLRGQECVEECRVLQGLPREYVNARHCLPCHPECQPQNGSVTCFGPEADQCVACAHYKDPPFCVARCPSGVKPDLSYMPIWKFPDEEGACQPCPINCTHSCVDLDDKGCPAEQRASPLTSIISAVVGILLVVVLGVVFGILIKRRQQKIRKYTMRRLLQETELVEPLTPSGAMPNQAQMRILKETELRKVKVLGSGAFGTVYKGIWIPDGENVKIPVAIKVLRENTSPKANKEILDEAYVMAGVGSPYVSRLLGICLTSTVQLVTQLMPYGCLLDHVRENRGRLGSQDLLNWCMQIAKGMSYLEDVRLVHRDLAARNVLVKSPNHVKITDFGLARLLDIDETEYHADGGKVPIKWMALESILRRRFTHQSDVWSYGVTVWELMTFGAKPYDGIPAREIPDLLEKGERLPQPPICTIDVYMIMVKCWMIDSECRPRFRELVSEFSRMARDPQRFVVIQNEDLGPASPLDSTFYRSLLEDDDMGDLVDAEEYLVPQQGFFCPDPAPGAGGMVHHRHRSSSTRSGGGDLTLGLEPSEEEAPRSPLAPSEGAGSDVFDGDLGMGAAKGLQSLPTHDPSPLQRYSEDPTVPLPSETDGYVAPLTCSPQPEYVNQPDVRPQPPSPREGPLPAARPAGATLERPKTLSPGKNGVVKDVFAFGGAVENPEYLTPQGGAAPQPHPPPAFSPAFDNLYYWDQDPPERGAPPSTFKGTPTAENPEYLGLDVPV
Ba/F3 ERBB2 A775_G776insYVMA, sequence (P04626 with tags, fused parts or gaps DUP772-775): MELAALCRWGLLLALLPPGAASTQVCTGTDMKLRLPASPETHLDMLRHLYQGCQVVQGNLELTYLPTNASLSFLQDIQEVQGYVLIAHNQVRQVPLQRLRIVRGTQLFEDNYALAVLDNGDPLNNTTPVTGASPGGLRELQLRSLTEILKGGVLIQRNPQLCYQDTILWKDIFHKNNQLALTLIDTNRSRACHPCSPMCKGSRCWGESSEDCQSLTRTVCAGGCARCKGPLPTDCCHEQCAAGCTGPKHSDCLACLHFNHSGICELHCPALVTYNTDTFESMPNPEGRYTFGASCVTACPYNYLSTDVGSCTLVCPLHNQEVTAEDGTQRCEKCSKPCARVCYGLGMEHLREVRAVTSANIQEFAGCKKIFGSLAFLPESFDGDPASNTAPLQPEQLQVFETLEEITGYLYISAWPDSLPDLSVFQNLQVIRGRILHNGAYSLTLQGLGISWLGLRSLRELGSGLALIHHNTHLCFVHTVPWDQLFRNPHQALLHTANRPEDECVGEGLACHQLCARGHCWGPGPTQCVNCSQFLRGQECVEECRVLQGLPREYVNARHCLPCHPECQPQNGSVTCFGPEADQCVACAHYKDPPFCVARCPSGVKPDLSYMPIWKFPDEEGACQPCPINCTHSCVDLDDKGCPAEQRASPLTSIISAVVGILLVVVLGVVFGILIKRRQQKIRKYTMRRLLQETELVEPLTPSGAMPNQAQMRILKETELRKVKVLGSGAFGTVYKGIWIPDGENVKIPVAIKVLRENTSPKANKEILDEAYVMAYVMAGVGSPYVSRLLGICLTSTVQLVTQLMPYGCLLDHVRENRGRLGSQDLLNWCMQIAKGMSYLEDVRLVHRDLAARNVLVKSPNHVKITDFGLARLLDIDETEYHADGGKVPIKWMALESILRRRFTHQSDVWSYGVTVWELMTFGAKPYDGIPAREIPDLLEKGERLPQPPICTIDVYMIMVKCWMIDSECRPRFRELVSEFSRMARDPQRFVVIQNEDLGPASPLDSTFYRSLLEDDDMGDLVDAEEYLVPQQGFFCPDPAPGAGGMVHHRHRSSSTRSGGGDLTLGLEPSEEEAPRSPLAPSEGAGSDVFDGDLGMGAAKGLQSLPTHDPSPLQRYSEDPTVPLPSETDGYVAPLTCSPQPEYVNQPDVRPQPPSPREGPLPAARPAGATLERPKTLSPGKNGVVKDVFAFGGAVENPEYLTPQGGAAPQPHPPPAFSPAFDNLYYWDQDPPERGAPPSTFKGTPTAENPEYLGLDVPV

One may read the pIC50 as the negative decadic logarithm of the IC50, by convention in mol/L. In the case of `C=C1CCN(c2ccc3ncnc(Nc4cc(C)c(Oc5ccn6ncnc6c5)cc4F)c3c2)C1=O` [Compound 15, 1-[4 [(2-fluoro-5-methyl-4-[[1,2,4]triazolo[1,5-a]pyridin-7-yloxy]phenyl)amino]quinazolin-6-yl]-3-methylidenepyrrolidin-2-one], the GI50 in assay [1] (setting [4]) came to 245 nM. Further, the negative logarithm of the IC50 (pIC50) was 8.09 in assay [2], 5.90 in assay [3] and 8.49 with BT-474.

Regarding `C=C1CCN(c2ccc3ncnc(Nc4ccc(Cc5ccn6ncnc6c5)cc4)c3c2)C1=O` [Compound 9, 3-methylidene-1-[4-[(4-[[1,2,4]triazolo[1,5-a]pyridin-7-ylmethyl]phenyl)amino]quinazolin-6-yl]pyrrolidin-2-one], the negative-log IC50 (pIC50) was 7.35 in the assay on BT-474 and < 5.00 with A431.

`C=C1C(=O)N(c2ccc3ncnc(Nc4ccc(Oc5ccn6ncnc6c5)c(C)c4)c3c2)CC12CC2` [Compound 2, 5-[4-[(3-methyl-4-[[1,2,4]triazolo[1,5-a]pyridin-7-yloxy]phenyl)amino]quinazolin-6-yl]-7-methylidene-5-azaspiro[2.4]heptan-6-one]: the results for the negative-log IC50 (pIC50) (in assay [2]; in assay [3]; in the assay on BT-474) were 7.12, < 5.00 and 7.71, respectively.

Take `C=C1CCN(c2ccc3ncnc(Nc4ccc(Oc5ccn6ncnc6c5)c(C)c4)c3c2F)C1=O` [Compound 7, 1-[5-fluoro-4-[(3-methyl-4-[[1,2,4]triazolo[1,5-a]pyridin-7-yloxy]phenyl)amino]quinazolin-6-yl]-3-methylidenepyrrolidin-2-one]: the GI50 in assay [1] (setting [4]) is > 1000 nM. The results for the negative-log IC50 (pIC50) (in assay [2]; in the assay with BT-474; in the assay with A431) were 6.96, 7.50 and < 5.00, respectively.

In the case of `Cc1cc(Nc2ncnc3ccc(N4CC/C(=C\CN(C)C)C4=O)cc23)ccc1Oc1ccn2ncnc2c1` [Compound 18, (E)-1-(4-(4-([1,2,4]triazolo[1,5-a]pyridin-7-yloxy)-3-methylphenylamino)quinazolin-6-yl)-3-(2-(dimethylamino)ethylidene)pyrrolidin-2-one hydrochloride], the GI50 in assay [1] (setting [4]) came to 77.1 nM. Also, the pIC50 in assay [2] was 8.12; in assay [3], < 5.02; in the assay on BT-474, 8.43.

As to `C=C1CCN(c2ccc3ncnc(Nc4ccc(Oc5ccn(C(F)F)c(=O)c5)c(C)c4)c3c2)C1=O` [Compound 12, 1-(difluoromethyl)-4-(2-methyl-4-[[6-(3-methylidene-2-oxopyrrolidin-1-yl)quinazolin-4-yl]amino]phenoxy)pyridin-2-one], the GI50 in assay [1] (setting [4]) stood at 113 nM. The negative logarithm of the IC50 (pIC50) in the assay on BT-474 was 7.69; with A431, 5.12.

`C=C1CCN(c2ccc3ncnc(Nc4ccc(Cc5ccc(C)nc5)cc4)c3c2)C1=O` [Compound 8, 3-methylidene-1-[4-([4-[(6-methylpyridin-3-yl)methyl]phenyl]amino)quinazolin-6-yl]pyrrolidin-2-one]: the pIC50 with BT-474 is 7.28; in the assay on A431 it was 5.12.

As for `C=C1CCN(c2ccc3ncnc(Nc4ccc(Cc5ccn6ncnc6c5)c(C)c4)c3c2)C1=O` [Compound 16, 1-[4-[(3-methyl-4-[[1,2,4]triazolo[1,5-a]pyridin-7-ylmethyl]phenyl)amino]quinazolin-6-yl]-3-methylidenepyrrolidin-2-one], in assay [1] (setting [4]), the GI50 was 169 nM. The pIC50 was 8.04 in assay [2], 6.63 in assay [3] and 8.33 in the assay on BT-474.

With `C=C1CCN(c2ccc3ncnc(Nc4ccc(Oc5ccn6ncnc6c5)c(F)c4)c3c2)C1=O` [Compound 11, 1-[4-[(3-fluoro-4-[[1,2,4]triazolo[1,5-a]pyridin-7-yloxy]phenyl)amino]quinazolin-6-yl]-3-methylidenepyrrolidin-2-one], the pIC50 is 5.12 in the assay with BT-474 and 5.19 in the assay on A431.

Turning to `C=C1CCN(c2ccc3ncnc(Nc4ccc(Oc5cnc(C)cn5)c(C)c4)c3c2)C1=O` [Compound 6, 1-[4-([3-methyl-4-[(5-methylpyrazin-2-yl)oxy]phenyl]amino)quinazolin-6-yl]-3-methylidenepyrrolidin-2-one], the GI50 in assay [1] (setting [4]) is > 1000 nM. The pIC50 was 7.79 in the assay with BT-474 and < 5.19 in the assay with A431.

With `C=C1CCN(c2ccc3ncnc(Nc4ccc(Oc5ccn6ncnc6c5)c(Cl)c4)c3c2)C1=O` [Compound 10, 1-[4-[(3-chloro-4-[[1,2,4]triazolo[1,5-a]pyridin-7-yloxy]phenyl)amino]quinazolin-6-yl]-3-methylidenepyrrolidin-2-one], the negative-log IC50 (pIC50) was 7.57 with BT-474 and 6.17 with A431.

Turning to `C=C1CCN(c2ccc3ncnc(Nc4ccc(Oc5ccn6ncnc6c5)c(C)c4F)c3c2)C1=O` [Compound 14, 1-[4-[(2-fluoro-3-methyl-4-[[1,2,4]triazolo[1,5-a]pyridin-7-yloxy]phenyl)amino]quinazolin-6-yl]-3-methylidenepyrrolidin-2-one], the pIC50 in assay [2] is 7.57; in assay [3], 5.42; with BT-474, 8.36.

Take `C=C1CCN(c2ccc3ncnc(Nc4ccc(Oc5ccn(C)c(=O)c5)c(C)c4)c3c2)C1=O` [Compound 5, 1-methyl-4-(2-methyl-4-[[6-(3-methylidene-2-oxopyrrolidin-1-yl)quinazolin-4-yl]amino]phenoxy)pyridin-2-one]: the GI50 in assay [1] (setting [4]) came out at 236 nM. Also, the pIC50 was 7.56 with BT-474 and < 5.00 in the assay with A431.

Take `Cc1cc(Nc2ncnc3cnc(N4CC/C(=C\CN(C)C)C4=O)cc23)c(F)cc1Oc1ccc2c(c1)ncn2C` [Compound 76, (3E)-3-[2-(dimethylamino)ethylidene]-1-[4-({2-fluoro-5-methyl-4-[(1-methyl-1,3-benzodiazol-5-yl)oxy]phenyl}amino)pyrido[3,4-d]pyrimidin-6-yl]pyrrolidin-2-one]: the GI50 in assay [1] (setting [5]) is > 500 nM. Moreover, the pIC50 in assay [2] and in assay [3] was < 5.00 throughout.

Take `Cc1cc(Nc2ncnc3ccc(N4CC/C(=C\CN(C)C)C4=O)nc23)c(F)cc1Oc1ccc2c(c1)ncn2C` [Compound 70, (3E)-3-[2-(dimethylamino)ethylidene]-1-[4-({2-fluoro-5-methyl-4-[(1-methyl-1,3-benzodiazol-5-yl)oxy]phenyl}amino)pyrido[3,2-d]pyrimidin-6-yl]pyrrolidin-2-one]: in assay [1] (setting [5]), the GI50 worked out at 4.29 nM. Moreover, the pIC50 was 7.46 in assay [2] and 5.70 in assay [3].

Consider `Cc1cc(Nc2ncnc3ccc(N4CC(C)C(=CCN(C)C)C4=O)nc23)ccc1Oc1ccn2ncnc2c1` (single isomer, unassigned) [Example S98, Enantiomer #2, 3-[2-(dimethylamino)ethylidene]-4-methyl-1-{4-[(3-methyl-4-{[1,2,4]triazolo[1,5-a]pyridin-7-yloxy}phenyl)amino]pyrido[3,2-d]pyrimidin-6-yl}pyrrolidin-2-one], for which the GI50 in assay [1] (setting [5]) stood at 71.2 nM. Besides, the pIC50 in assay [2] was 7.58; in assay [3] it was < 5.00.

For the compound `C=C1CCN(c2ccc3ncnc(Nc4ccc(Cc5ccc6c(c5)ncn6C)c(C)c4)c3c2)C1=O` [Compound 52, 1-[4-({3-methyl-4-[(1-methyl-1,3-benzodiazol-5-yl)methyl]phenyl}amino)quinazolin-6-yl]-3-methylidenepyrrolidin-2-one], the GI50 in assay [1] (setting [5]) stood at 21.9 nM. The pIC50 in assay [2] was 7.09; in assay [3], < 5.00.

`Cc1cc(Nc2ncnc3ccc(N4CC(C)C(=CCN(C)C)C4=O)nc23)ccc1Oc1ccc2c(c1)nnn2C` (single isomer, unassigned) [Example S126, Enantiomer #2, 3-[2-(dimethylamino)ethylidene]-4-methyl-1-[4-({3-methyl-4-[(1-methyl-1,2,3-benzotriazol-5-yl)oxy]phenyl}amino)pyrido[3,2-d]pyrimidin-6-yl]pyrrolidin-2-one]: in assay [1] (setting [5]), the GI50 stood at 205 nM. In addition, the negative-log IC50 (pIC50) in assay [2] was 6.40; in assay [3], < 5.00.
